Assays:
Format in all cases: cell-based
[1] = tested on: CHL cells (Chinese hamster lung fibroblast cell line); experiment: In vitro chromosomal aberration assay; conditions: for Numerical aberrations, PP + ER / Structural aberrations, Chromatid type, ctb / Structural aberrations, Chromatid type, cte / Structural aberrations, Chromosome type, csb / Structural aberrations, Chromosome type, cse / Structural aberrations, Others / Growth index / Total frequency (+) Gap / Total frequency (−) Gap / Gap: S9 (−); for Numerical aberrations, PP + ER / Structural aberrations, Chromatid type, ctb / Structural aberrations, Chromatid type, cte / Structural aberrations, Chromosome type, csb / Structural aberrations, Chromosome type, cse / Structural aberrations, Others / Gap: 200 cells
[2] = tested on: Escherichia coli strain (WP2 uvrA); experiment: Bacterial reverse mutation assay; conditions: E. coli
[3] = tested on: Salmonella typhimurium strain TA100; experiment: Bacterial reverse mutation assay
[4] = tested on: Salmonella typhimurium strain TA1535; experiment: Bacterial reverse mutation assay

Oc1ccc(-c2ccc3cc(O)ccc3c2)c(O)c1 [HS-1793, 4-(6-hydroxy-2-naphthyl)-1,3-benzenediol]
Numerical aberrations, PP + ER ([1]; 6~18 hr, 25 μg/ml): 0
Structural aberrations, Chromatid type, ctb ([1]; 6~18 hr, 25 μg/ml): 0
Structural aberrations, Chromatid type, cte ([1]; 6~18 hr, 25 μg/ml): 1
Structural aberrations, Chromosome type, csb ([1]; 6~18 hr, 25 μg/ml): 1
Structural aberrations, Chromosome type, cse ([1]; 6~18 hr, 25 μg/ml): 0
Structural aberrations, Others ([1]; 6~18 hr, 25 μg/ml): 0
Growth index ([1]; 6~18 hr, 50 μg/ml): 72%
Total frequency (+) Gap ([1]; 6~18 hr, 50 μg/ml): 1.5%
Total frequency (−) Gap ([1]; 6~18 hr, 50 μg/ml): 1%
Gap ([1]; 6~18 hr, 50 μg/ml): 1
Numerical aberrations, PP + ER ([1]; 6~18 hr, 50 μg/ml): 0
Structural aberrations, Chromatid type, ctb ([1]; 6~18 hr, 50 μg/ml): 1
Structural aberrations, Chromatid type, cte ([1]; 6~18 hr, 50 μg/ml): 1
Structural aberrations, Chromosome type, csb ([1]; 6~18 hr, 50 μg/ml): 0
Structural aberrations, Chromosome type, cse ([1]; 6~18 hr, 50 μg/ml): 0
Structural aberrations, Others ([1]; 6~18 hr, 50 μg/ml): 0
Growth index ([1]; 6~18 hr, 100 μg/ml): 65%
Total frequency (−) Gap ([1]; 6~18 hr, 100 μg/ml): 0.5%
Gap ([1]; 6~18 hr, 100 μg/ml): 2
Structural aberrations, Chromatid type, ctb ([1]; 6~18 hr, 100 μg/ml): 0
Structural aberrations, Chromosome type, csb ([1]; 6~18 hr, 100 μg/ml): 0
Structural aberrations, Chromosome type, cse ([1]; 6~18 hr, 100 μg/ml): 0
Structural aberrations, Others ([1]; 6~18 hr, 100 μg/ml): 0
Growth index ([1]; 24~0 hr continuous, 6.25 μg/ml): 93%
Growth index ([1]; 24~0 hr continuous, 12.5 μg/ml): 85%
Growth index ([1]; 24~0 hr continuous, 25 μg/ml): 79%
Gap ([1]; 24~0 hr continuous, 25 μg/ml): 1
Numerical aberrations, PP + ER ([1]; 24~0 hr continuous, 25 μg/ml): 1
Structural aberrations, Chromatid type, ctb ([1]; 24~0 hr continuous, 25 μg/ml): 0
Structural aberrations, Chromatid type, cte ([1]; 24~0 hr continuous, 25 μg/ml): 1
Structural aberrations, Chromosome type, csb ([1]; 24~0 hr continuous, 25 μg/ml): 0
Structural aberrations, Chromosome type, cse ([1]; 24~0 hr continuous, 25 μg/ml): 0
Structural aberrations, Others ([1]; 24~0 hr continuous, 25 μg/ml): 0
Growth index ([1]; 24~0 hr continuous, 50 μg/ml): 72%
Total frequency (+) Gap ([1]; 24~0 hr continuous, 50 μg/ml): 2%
Total frequency (−) Gap ([1]; 24~0 hr continuous, 50 μg/ml): 1.5%
Structural aberrations, Chromatid type, ctb ([1]; 24~0 hr continuous, 50 μg/ml): 2
Structural aberrations, Chromatid type, cte ([1]; 24~0 hr continuous, 50 μg/ml): 1
Structural aberrations, Chromosome type, csb ([1]; 24~0 hr continuous, 50 μg/ml): 0
Structural aberrations, Chromosome type, cse ([1]; 24~0 hr continuous, 50 μg/ml): 0
Structural aberrations, Others ([1]; 24~0 hr continuous, 50 μg/ml): 0
Growth index ([1]; 24~0 hr continuous, 100 μg/ml): 58%
Incidence of structural or numerical chromosomal aberrations ([1]; continuous treatment for 24 hr, 6.25, 12.5, 25, 50 and 100 μg/ml, absence of the S9 mix): did not induce a significant increase
Incidence of structural or numerical chromosomal aberrations ([1]; short term treatment for 6 hr, 6.25, 12.5, 25, 50 and 100 μg/ml, presence or absence of the S9 mix): did not induce a significant increase
Number of reverse mutants/plate (Mean ± SD) ([2]; with S9 activation, 78.1 μg/plate): 39 ± 3 reverse mutants/plate
Number of reverse mutants/plate (Mean ± SD) ([2]; with S9 activation, 156.3 μg/plate): 40 ± 2 reverse mutants/plate
Number of reverse mutants/plate (Mean ± SD) ([2]; with S9 activation, 312.5 μg/plate): 42 ± 3 reverse mutants/plate
Number of reverse mutants/plate (Mean ± SD) ([2]; with S9 activation, 625 μg/plate): 38 ± 3 reverse mutants/plate
Number of reverse mutants/plate (Mean ± SD) ([2]; with S9 activation, 1,250 μg/plate): 37 ± 2 reverse mutants/plate
Number of reverse mutants/plate (Mean ± SD) ([2]; with S9 activation, 2,500 μg/plate): 43 ± 3 reverse mutants/plate
Number of reverse mutants/plate (Mean ± SD) ([2]; with S9 activation, 5,000 μg/plate): 40 ± 2 reverse mutants/plate
Number of reverse mutants/plate (Mean ± SD) ([2]; without S9 activation, 78.1 μg/plate): 39 ± 3 reverse mutants/plate
Number of reverse mutants/plate (Mean ± SD) ([2]; without S9 activation, 156.3 μg/plate): 33 ± 3 reverse mutants/plate
Number of reverse mutants/plate (Mean ± SD) ([2]; without S9 activation, 312.5 μg/plate): 37 ± 2 reverse mutants/plate
Number of reverse mutants/plate (Mean ± SD) ([2]; without S9 activation, 625 μg/plate): 36 ± 2 reverse mutants/plate
Number of reverse mutants/plate (Mean ± SD) ([2]; without S9 activation, 1,250 μg/plate): 36 ± 3 reverse mutants/plate
Number of reverse mutants/plate (Mean ± SD) ([2]; without S9 activation, 2,500 μg/plate): 32 ± 1 reverse mutants/plate
Number of reverse mutants/plate (Mean ± SD) ([2]; without S9 activation, 5,000 μg/plate): 36 ± 2 reverse mutants/plate
Number of reverse mutants/plate (Mean ± SD) ([3]; TA100, with S9 activation, 78.1 μg/plate): 116 ± 13 reverse mutants/plate
Number of reverse mutants/plate (Mean ± SD) ([3]; TA100, with S9 activation, 156.3 μg/plate): 109 ± 8 reverse mutants/plate
Number of reverse mutants/plate (Mean ± SD) ([3]; TA100, with S9 activation, 312.5 μg/plate): 114 ± 4 reverse mutants/plate
Number of reverse mutants/plate (Mean ± SD) ([3]; TA100, with S9 activation, 625 μg/plate): 106 ± 19 reverse mutants/plate
Number of reverse mutants/plate (Mean ± SD) ([3]; TA100, with S9 activation, 1,250 μg/plate): 108 ± 14 reverse mutants/plate
Number of reverse mutants/plate (Mean ± SD) ([3]; TA100, with S9 activation, 2,500 μg/plate): 118 ± 11 reverse mutants/plate
Number of reverse mutants/plate (Mean ± SD) ([3]; TA100, with S9 activation, 5,000 μg/plate): 106 ± 9 reverse mutants/plate
Number of reverse mutants/plate (Mean ± SD) ([3]; TA100, without S9 activation, 78.1 μg/plate): 121 ± 8 reverse mutants/plate
Number of reverse mutants/plate (Mean ± SD) ([3]; TA100, without S9 activation, 156.3 μg/plate): 117 ± 11 reverse mutants/plate
Number of reverse mutants/plate (Mean ± SD) ([3]; TA100, without S9 activation, 312.5 μg/plate): 116 ± 9 reverse mutants/plate
Number of reverse mutants/plate (Mean ± SD) ([3]; TA100, without S9 activation, 625 μg/plate): 124 ± 6 reverse mutants/plate
Number of reverse mutants/plate (Mean ± SD) ([3]; TA100, without S9 activation, 1,250 μg/plate): 107 ± 12 reverse mutants/plate
Number of reverse mutants/plate (Mean ± SD) ([3]; TA100, without S9 activation, 2,500 μg/plate): 108 ± 6 reverse mutants/plate
Number of reverse mutants/plate (Mean ± SD) ([3]; TA100, without S9 activation, 5,000 μg/plate): 119 ± 12 reverse mutants/plate
Number of reverse mutants/plate (Mean ± SD) ([4]; TA1535, with S9 activation, 78.1 μg/plate): 24 ± 3 reverse mutants/plate
Number of reverse mutants/plate (Mean ± SD) ([4]; TA1535, with S9 activation, 156.3 μg/plate): 22 ± 3 reverse mutants/plate
Number of reverse mutants/plate (Mean ± SD) ([4]; TA1535, with S9 activation, 312.5 μg/plate): 23 ± 4 reverse mutants/plate
Number of reverse mutants/plate (Mean ± SD) ([4]; TA1535, with S9 activation, 625 μg/plate): 21 ± 4 reverse mutants/plate
Number of reverse mutants/plate (Mean ± SD) ([4]; TA1535, with S9 activation, 1,250 μg/plate): 21 ± 3 reverse mutants/plate
Number of reverse mutants/plate (Mean ± SD) ([4]; TA1535, with S9 activation, 2,500 μg/plate): 20 ± 2 reverse mutants/plate
Number of reverse mutants/plate (Mean ± SD) ([4]; TA1535, with S9 activation, 5,000 μg/plate): 21 ± 6 reverse mutants/plate
Number of reverse mutants/plate (Mean ± SD) ([4]; TA1535, without S9 activation, 78.1 μg/plate): 15 ± 2 reverse mutants/plate
Number of reverse mutants/plate (Mean ± SD) ([4]; TA1535, without S9 activation, 156.3 μg/plate): 17 ± 2 reverse mutants/plate
Number of reverse mutants/plate (Mean ± SD) ([4]; TA1535, without S9 activation, 312.5 μg/plate): 18 ± 2 reverse mutants/plate
Number of reverse mutants/plate (Mean ± SD) ([4]; TA1535, without S9 activation, 625 μg/plate): 17 ± 5 reverse mutants/plate
Number of reverse mutants/plate (Mean ± SD) ([4]; TA1535, without S9 activation, 1,250 μg/plate): 17 ± 2 reverse mutants/plate
Number of reverse mutants/plate (Mean ± SD) ([4]; TA1535, without S9 activation, 2,500 μg/plate): 18 ± 4 reverse mutants/plate
Number of reverse mutants/plate (Mean ± SD) ([4]; TA1535, without S9 activation, 5,000 μg/plate): 17 ± 3 reverse mutants/plate
